From patent publication US9308194B2, “Indanyloxyphenylcyclopropanecarboxylic acids” (Boehringer Ingelheim International GmbH, priority 2013, dated 2016)

These molecules were tested against human GPR40 receptor (Homo sapiens, UniProt O14842) (assay: IP1 accumulation measurements using the IPOne assay system in 1321N1 cells stably expressing human GPR40 receptor). Conditions: 1321N1 cells expressing human GPR40, 1 hour stimulation at 37° C., Table 2.
Sequence of human GPR40 receptor (O14842 whole entry): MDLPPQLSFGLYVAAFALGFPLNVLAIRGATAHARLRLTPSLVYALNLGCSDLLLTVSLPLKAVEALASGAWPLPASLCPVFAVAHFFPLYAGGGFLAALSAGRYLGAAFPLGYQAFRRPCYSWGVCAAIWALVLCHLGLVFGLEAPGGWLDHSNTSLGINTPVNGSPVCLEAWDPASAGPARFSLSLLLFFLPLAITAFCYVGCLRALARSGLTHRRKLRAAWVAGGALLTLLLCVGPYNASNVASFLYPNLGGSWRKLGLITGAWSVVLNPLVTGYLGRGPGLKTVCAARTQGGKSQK
Assay type: cell-based
Method: (§1) IP1 is assayed according to the Manufacturer's description (Cisbio Bioassays, France). In brief, the assay is started by substitution of the culture medium by stimulation buffer (Hepes 10 mM, CaCl2 1 mM, MgCl2 0.5 mM, KCl 4.2 mM, NaCl 146 mM and glucose 5.5 mM, pH 7.4) without LiCl or with […]. Cells are stimulated for 1 hour at 37° C., 5 or 10% CO2 by addition of the compounds that are diluted in stimulation buffer containing LiCl yielding a final LiCl concentration of 50 mM. Assays are stopped by adding HTRF-conjugates (IP1-d2 and Anti-IP1 cryptate Tb) and lysis buffer, provided by the manufacturer. After an incubation time of 1 hour at room temperature plates are measured using an EnVision™, Perkin Elmer. The obtained fluorescence ratios at […] are then used to calculate the pEC50 values using GraphPad Prism 5 (Graphpad Software Inc, USA) or Assay Explorer 3.3 Software (Accelrys, Inc.) by interpolation using an IP1 reference curve and subsequent sigmoidal curve fitting allowing for a variable hill slope.
as §1, with “IP1 accumulation measurements using the IPOne assay system—1321N1 cells stably expressing human GPR40 receptor (Euroscreen, Belgium) are seeded 24 h before the assay in black clear-bottom collagen-coated or white 384-well plates in culture medium containing 10% FCS, 1% Na-Pyruvate and 400 μg/mL G418. IP1 is” for “IP1 is”
O=C(O)[C@H]1C[C@@H]1c1ccc(O[C@@H]2CCc3c(Oc4ccc(OCc5ccccc5)cc4)ccc(F)c32)cc1 [Example 1] was tested, and the EC50 was 6 nM.
Work on O=C(O)[C@H]1C[C@@H]1c1ccc(O[C@@H]2CCc3c(Oc4ccc(O)cc4)ccc(F)c32)cc1 [Example 2] yielded an EC50 of 6 nM.
Work on O=C(O)[C@H]1C[C@@H]1c1ccc(O[C@@H]2CCc3c(Oc4ccc(OCc5ccccc5)c(F)c4)ccc(F)c32)cc1 [Example 3] yielded an EC50 of 5 nM.
Work on CC(C)(O)CCOc1ccc(Oc2ccc(F)c3c2CC[C@H]3Oc2ccc([C@H]3C[C@@H]3C(=O)O)cc2)cc1 [Example 4] yielded an EC50 of 5 nM.
Molecule O=C(O)[C@H]1C[C@@H]1c1ccc(O[C@@H]2CCc3c(Oc4ccc(OCC5(O)CCOCC5)cc4)ccc(F)c32)cc1 [Example 5] has an EC50 of 7 nM.
In the case of O=C(O)[C@H]1C[C@@H]1c1ccc(O[C@@H]2CCc3c(Oc4ccc(OC5CCOCC5)cc4)ccc(F)c32)cc1 [Example 6], the EC50 is reported as 2 nM.
For CS(=O)(=O)CCCOc1ccc(Oc2ccc(F)c3c2CC[C@H]3Oc2ccc([C@H]3C[C@@H]3C(=O)O)cc2)cc1 [Example 7], the EC50 was 4 nM.
Work on COCCOc1ccc(Oc2ccc(F)c3c2CC[C@H]3Oc2ccc([C@H]3C[C@@H]3C(=O)O)cc2)cc1 [Example 8] yielded an EC50 of 5 nM.
In the case of CC(C)(O)COc1ccc(Oc2ccc(F)c3c2CC[C@H]3Oc2ccc([C@H]3C[C@@H]3C(=O)O)cc2)cc1 [Example 9], the EC50 is reported as 5 nM.
In the case of O=C(O)[C@H]1C[C@@H]1c1ccc(O[C@@H]2CCc3c(Oc4ccc(OCCO)cc4)ccc(F)c32)cc1 [Example 10], the EC50 is reported as 7 nM.
Work on CC(C)(O)CCOc1ccc(Oc2ccc(F)c3c2CC[C@H]3Oc2ccc([C@H]3C[C@@H]3C(=O)O)cc2)cc1F [Example 11] yielded an EC50 of 3 nM.
In the case of O=C(O)[C@H]1C[C@@H]1c1ccc(O[C@@H]2CCc3c(Oc4ccc(OC5CCOCC5)c(F)c4)ccc(F)c32)cc1 [Example 12], the EC50 is reported as 4 nM.
For COCCOc1ccc(Oc2ccc(F)c3c2CC[C@H]3Oc2ccc([C@H]3C[C@@H]3C(=O)O)cc2)cc1F [Example 13], the EC50 was 8 nM.
Work on O=C(O)[C@H]1C[C@@H]1c1ccc(O[C@@H]2CCc3c(Oc4ccc(OCCN5CCOCC5)cc4)ccc(F)c32)cc1 [Example 14] yielded an EC50 of 3 nM.
With CS(=O)(=O)CCCOc1ccc(Oc2ccc(F)c3c2CC[C@H]3Oc2ccc([C@H]3C[C@@H]3C(=O)O)cc2)cc1F [Example 15] the EC50 was 8 nM.
For O=C(O)c1ccc(Oc2ccc(F)c3c2CC[C@H]3Oc2ccc([C@H]3C[C@@H]3C(=O)O)cc2)cc1 [Example 16], the EC50 was 92 nM.
CNC(=O)c1ccc(Oc2ccc(F)c3c2CC[C@H]3Oc2ccc([C@H]3C[C@@H]3C(=O)O)cc2)cc1 [Example 17] gave an EC50 of 9 nM.
O=C(NCC1CC1)c1ccc(Oc2ccc(F)c3c2CC[C@H]3Oc2ccc([C@H]3C[C@@H]3C(=O)O)cc2)cc1 [Example 18] gave an EC50 of 6 nM.
With CN(CCO)C(=O)c1ccc(Oc2ccc(F)c3c2CC[C@H]3Oc2ccc([C@H]3C[C@@H]3C(=O)O)cc2)cc1 [Example 19] the EC50 was 48 nM.
Work on CN(C)C(=O)c1ccc(Oc2ccc(F)c3c2CC[C@H]3Oc2ccc([C@H]3C[C@@H]3C(=O)O)cc2)cc1 [Example 20] yielded an EC50 of 11 nM.
Work on O=C(NC1CCOCC1)c1ccc(Oc2ccc(F)c3c2CC[C@H]3Oc2ccc([C@H]3C[C@@H]3C(=O)O)cc2)cc1 [Example 21] yielded an EC50 of 3 nM.
O=C(O)[C@H]1C[C@@H]1c1ccc(O[C@@H]2CCc3c(Oc4ccc(C(=O)N5CCOCC5)cc4)ccc(F)c32)cc1 [Example 22] was tested, and the EC50 was 27 nM.
CCNC(=O)c1ccc(Oc2ccc(F)c3c2CC[C@H]3Oc2ccc([C@H]3C[C@@H]3C(=O)O)cc2)cc1 [Example 23] showed an EC50 of 12 nM.
Molecule N#Cc1ccc(Oc2ccc(F)c3c2CC[C@H]3Oc2ccc([C@H]3C[C@@H]3C(=O)O)cc2)cc1 [Example 24] has an EC50 of 2 nM.
Molecule Cc1cc(C#N)ccc1Oc1ccc(F)c2c1CC[C@H]2Oc1ccc([C@H]2C[C@@H]2C(=O)O)cc1 [Example 25] has an EC50 of 2 nM.
With N#Cc1ccc(Oc2ccc(F)c3c2CC[C@H]3Oc2ccc([C@H]3C[C@@H]3C(=O)O)cc2)c(F)c1 [Example 26] the EC50 was 19 nM.
Work on COc1cc(Oc2ccc(F)c3c2CC[C@H]3Oc2ccc([C@H]3C[C@@H]3C(=O)O)cc2)ccc1C#N [Example 27] yielded an EC50 of 2 nM.
With N#Cc1ccc(Oc2c(F)cc(F)c3c2CC[C@H]3Oc2ccc([C@H]3C[C@@H]3C(=O)O)cc2)cc1 [Example 28] the EC50 was 1 nM.
Cn1nnc(-c2ccc(Oc3ccc(F)c4c3CC[C@H]4Oc3ccc([C@H]4C[C@@H]4C(=O)O)cc3)cc2)n1 [Example 29] gave an EC50 of 3 nM.
With CC(C)c1ccn(-c2ccc(Oc3ccc(F)c4c3CC[C@H]4Oc3ccc([C@H]4C[C@@H]4C(=O)O)cc3)cc2)n1 [Example 30] the EC50 was 8 nM.
Work on Cc1cc(Oc2ccc(F)c3c2CC[C@H]3Oc2ccc([C@H]3C[C@@H]3C(=O)O)cc2)cc(C)c1OCCC(C)(C)O [Example 31] yielded an EC50 of 9 nM.
Cc1noc(-c2ccc(Oc3ccc(F)c4c3CC[C@H]4Oc3ccc([C@H]4C[C@@H]4C(=O)O)cc3)cc2)n1 [Example 32] was tested, and the EC50 was 4 nM.
Molecule Cc1nc(-c2ccc(Oc3ccc(F)c4c3CC[C@H]4Oc3ccc([C@H]4C[C@@H]4C(=O)O)cc3)cc2)nn1C [Example 33] has an EC50 of 5 nM.
CC(C)(O)CNC(=O)c1ccc(Oc2ccc(F)c3c2CC[C@H]3Oc2ccc([C@H]3C[C@@H]3C(=O)O)cc2)cc1 [Example 34] gave an EC50 of 16 nM.
In the case of Cc1nc(-c2ccc(Oc3ccc(F)c4c3CC[C@H]4Oc3ccc([C@H]4C[C@@H]4C(=O)O)cc3)cc2)no1 [Example 35], the EC50 is reported as 3 nM.
Cn1ncc2ccc(Oc3ccc(F)c4c3CC[C@H]4Oc3ccc([C@H]4C[C@@H]4C(=O)O)cc3)cc21 [Example 36] showed an EC50 of 2 nM.
Cc1nc2ccc(Oc3ccc(F)c4c3CC[C@H]4Oc3ccc([C@H]4C[C@@H]4C(=O)O)cc3)cc2s1 [Example 37] was tested, and the EC50 was 2 nM.
CS(=O)(=O)c1ccc(Oc2ccc(F)c3c2CC[C@H]3Oc2ccc([C@H]3C[C@@H]3C(=O)O)cc2)cc1 [Example 38] showed an EC50 of 27 nM.
With Cc1ccc2cc(Oc3ccc(F)c4c3CC[C@H]4Oc3ccc([C@H]4C[C@@H]4C(=O)O)cc3)ccc2n1 [Example 39] the EC50 was 6 nM.
Molecule N#Cc1ccc2c(c1Cc1ccc(Cl)nc1)CC[C@H]2Oc1ccc([C@H]2C[C@@H]2C(=O)O)cc1 [Example 40, (1S,2S)-2-{4-[(R)-4-(6-Chloro-pyridin-3-ylmethyl)-5-cyano-indan-1-yloxy]-phenyl}-cyclopropanecarboxylic acid] has an EC50 of 45 nM.
In the case of Cc1cc(C#N)cc(C)c1S(=O)(=O)c1cccc2c1CC[C@H]2Oc1ccc([C@H]2C[C@@H]2C(=O)O)cc1 [Example 41], the EC50 is reported as 12 nM.
Molecule Cc1cccc(C)c1S(=O)(=O)c1cccc2c1CC[C@H]2Oc1ccc([C@H]2C[C@@H]2C(=O)O)cc1 [Example 42] has an EC50 of 4 nM.
Work on O=C(O)C1CC1c1ccc(O[C@@H]2CCc3c2cccc3S(=O)(=O)c2ccccc2)cc1 (stereo partly shown) [Example 43] yielded an EC50 of 37 nM.
O=C(O)C1CC1c1ccc(O[C@@H]2CCc3c2cccc3[S+]([O-])c2ccccc2)cc1 (stereo partly shown) [Example 44] gave an EC50 of 197 nM.
For O=C(O)[C@H]1C[C@@H]1c1ccc(O[C@@H]2CCc3c(Oc4ccccc4)ccc(F)c32)cc1 [Example 45, (1S,2S)-2-[4-((R)-7-Fluoro-4-phenoxy-indan-1-yloxy)-phenyl]-cyclopropanecarboxylic acid], the EC50 was 2 nM.
In the case of COc1ccc(Cc2c(C#N)ccc3c2CC[C@H]3Oc2ccc([C@H]3C[C@@H]3C(=O)O)cc2)cn1 [Example 46, (1S,2S)-2-{4-[(R)-5-Cyano-4-(6-methoxy-pyridin-3-ylmethyl)-indan-1-yloxy]-phenyl}-cyclopropanecarboxylic acid], the EC50 is reported as 8 nM.
